{
  "source": "the supplement of paper PMC10307832",
  "assay_in_all_cases": "relative viability (nuclei count vs DMSO), 5 days (fraction); higher = more cells survive",
  "key": {"EMC-BAC-2": {"system": "EMC-BAC-2", "summary_of_the_method": "(§1)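 Medians of duplicate plates are given as relative viability. That measure is the nuclei count in treated wells divided by the count in vehicle wells. Counts were taken on 4× images of lung cancer cell lines in 1536-well plates, 5 days after pin-tool dosing the day after seeding with one drug alone or a fixed anchor-drug dose plus five library-drug doses (not always all listed) in √10 steps.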"}, "EPLC-272H": {"system": "EPLC-272H", "summary_of_the_method": "as §1"}, "H3255": {"system": "H3255", "summary_of_the_method": "as §1"}, "HOP-62": {"system": "HOP-62", "summary_of_the_method": "as §1"}, "LCLC-97TM1": {"system": "LCLC-97TM1", "summary_of_the_method": "as §1"}, "LXF-289": {"system": "LXF-289", "summary_of_the_method": "as §1"}, "NCI-H1563": {"system": "NCI-H1563", "summary_of_the_method": "as §1"}, "NCI-H1650": {"system": "NCI-H1650", "summary_of_the_method": "as §1"}, "NCI-H1915": {"system": "NCI-H1915", "summary_of_the_method": "as §1"}, "NCI-H1993": {"system": "NCI-H1993", "summary_of_the_method": "as §1"}, "NCI-H2009": {"system": "NCI-H2009", "summary_of_the_method": "as §1"}, "NCI-H2023": {"system": "NCI-H2023", "summary_of_the_method": "as §1"}, "NCI-H2085": {"system": "NCI-H2085", "summary_of_the_method": "as §1"}, "NCI-H2126": {"system": "NCI-H2126", "summary_of_the_method": "as §1"}, "NCI-H2347": {"system": "NCI-H2347", "summary_of_the_method": "as §1"}, "NCI-H322M": {"system": "NCI-H322M", "summary_of_the_method": "as §1"}, "NCI-H647": {"system": "NCI-H647", "summary_of_the_method": "as §1"}, "NCI-H661": {"system": "NCI-H661", "summary_of_the_method": "as §1"}, "NCI-H727": {"system": "NCI-H727", "summary_of_the_method": "as §1"}, "PC-14": {"system": "PC-14", "summary_of_the_method": "as §1"}, "SK-LU-1": {"system": "SK-LU-1", "summary_of_the_method": "as §1"}, "SW 1573": {"system": "SW 1573", "summary_of_the_method": "as §1"}},
  "data": [
    {"smiles": "O=C(O)c1ccc(-c2c[nH]c3ncc(-c4ccccc4)cc23)cc1C1CCCC1", "note": "+ CS(=O)(=O)CCNCc1ccc(-c2ccc3ncnc(Nc4ccc(OCc5cccc(F)c5)c(Cl)c4)c3c2)o1 [Lapatinib] (partner 2 µM)", "values": [
      {"measurement": "relative viability", "setting": "EMC-BAC-2; first compound 0.04 µM", "value": 0.848},
      {"measurement": "relative viability", "setting": "EMC-BAC-2; first compound 0.1265 µM", "value": 1.03},
      {"measurement": "relative viability", "setting": "EMC-BAC-2; first compound 0.4 µM", "value": 0.916},
      {"measurement": "relative viability", "setting": "EMC-BAC-2; first compound 1.265 µM", "value": 0.946},
      {"measurement": "relative viability", "setting": "EPLC-272H; first compound 0.04 µM", "value": 1.16},
      {"measurement": "relative viability", "setting": "EPLC-272H; first compound 0.1265 µM", "value": 1.01},
      {"measurement": "relative viability", "setting": "EPLC-272H; first compound 0.4 µM", "value": 0.898},
      {"measurement": "relative viability", "setting": "EPLC-272H; first compound 1.265 µM", "value": 0.877},
      {"measurement": "relative viability", "setting": "H3255; first compound 0.04 µM", "value": 0.24},
      {"measurement": "relative viability", "setting": "H3255; first compound 0.1265 µM", "value": 0.231},
      {"measurement": "relative viability", "setting": "H3255; first compound 0.4 µM", "value": 0.26},
      {"measurement": "relative viability", "setting": "H3255; first compound 1.265 µM", "value": 0.275},
      {"measurement": "relative viability", "setting": "HOP-62; first compound 0.04 µM", "value": 1.23},
      {"measurement": "relative viability", "setting": "HOP-62; first compound 0.1265 µM", "value": 0.993},
      {"measurement": "relative viability", "setting": "HOP-62; first compound 0.4 µM", "value": 1.1},
      {"measurement": "relative viability", "setting": "HOP-62; first compound 1.265 µM", "value": 0.897},
      {"measurement": "relative viability", "setting": "LCLC-97TM1; first compound 0.04 µM", "value": 1.34},
      {"measurement": "relative viability", "setting": "LCLC-97TM1; first compound 0.1265 µM", "value": 1.06},
      {"measurement": "relative viability", "setting": "LCLC-97TM1; first compound 0.4 µM", "value": 0.922},
      {"measurement": "relative viability", "setting": "LCLC-97TM1; first compound 1.265 µM", "value": 0.717},
      {"measurement": "relative viability", "setting": "LXF-289; first compound 0.04 µM", "value": 0.96},
      {"measurement": "relative viability", "setting": "LXF-289; first compound 0.1265 µM", "value": 0.936},
      {"measurement": "relative viability", "setting": "LXF-289; first compound 0.4 µM", "value": 0.822},
      {"measurement": "relative viability", "setting": "LXF-289; first compound 1.265 µM", "value": 0.619},
      {"measurement": "relative viability", "setting": "NCI-H1563; first compound 0.04 µM", "value": 1.07},
      {"measurement": "relative viability", "setting": "NCI-H1563; first compound 0.1265 µM", "value": 0.939},
      {"measurement": "relative viability", "setting": "NCI-H1563; first compound 0.4 µM", "value": 0.933},
      {"measurement": "relative viability", "setting": "NCI-H1563; first compound 1.265 µM", "value": 0.968},
      {"measurement": "relative viability", "setting": "NCI-H1650; first compound 0.04 µM", "value": 0.731},
      {"measurement": "relative viability", "setting": "NCI-H1650; first compound 0.1265 µM", "value": 0.758},
      {"measurement": "relative viability", "setting": "NCI-H1650; first compound 0.4 µM", "value": 0.725},
      {"measurement": "relative viability", "setting": "NCI-H1650; first compound 1.265 µM", "value": 0.529},
      {"measurement": "relative viability", "setting": "NCI-H1915; first compound 0.04 µM", "value": 1.05},
      {"measurement": "relative viability", "setting": "NCI-H1915; first compound 0.1265 µM", "value": 1.03},
      {"measurement": "relative viability", "setting": "NCI-H1915; first compound 0.4 µM", "value": 0.972},
      {"measurement": "relative viability", "setting": "NCI-H1915; first compound 1.265 µM", "value": 0.743},
      {"measurement": "relative viability", "setting": "NCI-H1993; first compound 0.04 µM", "value": 0.927},
      {"measurement": "relative viability", "setting": "NCI-H1993; first compound 0.4 µM", "value": 0.789},
      {"measurement": "relative viability", "setting": "NCI-H1993; first compound 1.265 µM", "value": 0.835},
      {"measurement": "relative viability", "setting": "NCI-H2009; first compound 0.04 µM", "value": 1.06},
      {"measurement": "relative viability", "setting": "NCI-H2009; first compound 0.1265 µM", "value": 0.922},
      {"measurement": "relative viability", "setting": "NCI-H2009; first compound 0.4 µM", "value": 0.882},
      {"measurement": "relative viability", "setting": "NCI-H2009; first compound 1.265 µM", "value": 0.848},
      {"measurement": "relative viability", "setting": "NCI-H2023; first compound 0.04 µM", "value": 0.915},
      {"measurement": "relative viability", "setting": "NCI-H2023; first compound 0.1265 µM", "value": 0.938},
      {"measurement": "relative viability", "setting": "NCI-H2023; first compound 0.4 µM", "value": 0.779},
      {"measurement": "relative viability", "setting": "NCI-H2023; first compound 1.265 µM", "value": 0.511},
      {"measurement": "relative viability", "setting": "NCI-H2085; first compound 0.04 µM", "value": 0.762},
      {"measurement": "relative viability", "setting": "NCI-H2085; first compound 0.1265 µM", "value": 0.947},
      {"measurement": "relative viability", "setting": "NCI-H2085; first compound 0.4 µM", "value": 0.799},
      {"measurement": "relative viability", "setting": "NCI-H2085; first compound 1.265 µM", "value": 0.508},
      {"measurement": "relative viability", "setting": "NCI-H2126; first compound 0.04 µM", "value": 0.764},
      {"measurement": "relative viability", "setting": "NCI-H2126; first compound 0.1265 µM", "value": 0.81},
      {"measurement": "relative viability", "setting": "NCI-H2126; first compound 0.4 µM", "value": 0.734},
      {"measurement": "relative viability", "setting": "NCI-H2126; first compound 1.265 µM", "value": 0.741},
      {"measurement": "relative viability", "setting": "NCI-H2347; first compound 0.04 µM", "value": 0.96},
      {"measurement": "relative viability", "setting": "NCI-H2347; first compound 0.1265 µM", "value": 0.933},
      {"measurement": "relative viability", "setting": "NCI-H2347; first compound 0.4 µM", "value": 0.9},
      {"measurement": "relative viability", "setting": "NCI-H2347; first compound 1.265 µM", "value": 0.881},
      {"measurement": "relative viability", "setting": "NCI-H322M; first compound 0.04 µM", "value": 0.589},
      {"measurement": "relative viability", "setting": "NCI-H322M; first compound 0.1265 µM", "value": 0.618},
      {"measurement": "relative viability", "setting": "NCI-H322M; first compound 0.4 µM", "value": 0.727},
      {"measurement": "relative viability", "setting": "NCI-H322M; first compound 1.265 µM", "value": 0.55},
      {"measurement": "relative viability", "setting": "NCI-H647; first compound 0.04 µM", "value": 1.05},
      {"measurement": "relative viability", "setting": "NCI-H647; first compound 0.1265 µM", "value": 1.12},
      {"measurement": "relative viability", "setting": "NCI-H647; first compound 0.4 µM", "value": 1.13},
      {"measurement": "relative viability", "setting": "NCI-H647; first compound 1.265 µM", "value": 0.801},
      {"measurement": "relative viability", "setting": "NCI-H661; first compound 0.04 µM", "value": 0.455},
      {"measurement": "relative viability", "setting": "NCI-H661; first compound 0.1265 µM", "value": 0.633},
      {"measurement": "relative viability", "setting": "NCI-H661; first compound 0.4 µM", "value": 0.515},
      {"measurement": "relative viability", "setting": "NCI-H661; first compound 1.265 µM", "value": 0.458},
      {"measurement": "relative viability", "setting": "NCI-H727; first compound 0.04 µM", "value": 0.955},
      {"measurement": "relative viability", "setting": "NCI-H727; first compound 0.1265 µM", "value": 1},
      {"measurement": "relative viability", "setting": "NCI-H727; first compound 0.4 µM", "value": 0.876},
      {"measurement": "relative viability", "setting": "NCI-H727; first compound 1.265 µM", "value": 1.16},
      {"measurement": "relative viability", "setting": "PC-14; first compound 0.04 µM", "value": 0.304},
      {"measurement": "relative viability", "setting": "PC-14; first compound 0.1265 µM", "value": 0.391},
      {"measurement": "relative viability", "setting": "PC-14; first compound 0.4 µM", "value": 0.339},
      {"measurement": "relative viability", "setting": "PC-14; first compound 1.265 µM", "value": 0.302},
      {"measurement": "relative viability", "setting": "SK-LU-1; first compound 0.04 µM", "value": 0.874},
      {"measurement": "relative viability", "setting": "SK-LU-1; first compound 0.1265 µM", "value": 0.831},
      {"measurement": "relative viability", "setting": "SK-LU-1; first compound 0.4 µM", "value": 0.771},
      {"measurement": "relative viability", "setting": "SK-LU-1; first compound 1.265 µM", "value": 0.488},
      {"measurement": "relative viability", "setting": "SW 1573; first compound 0.04 µM", "value": 1.15},
      {"measurement": "relative viability", "setting": "SW 1573; first compound 0.1265 µM", "value": 1.39},
      {"measurement": "relative viability", "setting": "SW 1573; first compound 0.4 µM", "value": 1.14},
      {"measurement": "relative viability", "setting": "SW 1573; first compound 1.265 µM", "value": 1.09}
    ]}
  ]
}
